From US20050282818A1, “Ubiquitin ligase inhibitors” (Rigel Pharmaceuticals, Inc., priority 2004, published 2005)

What was measured:
H1299 cells = experiment: Cell proliferation PAD assay, H1299; assay type: cell-based; details: Homo sapiens, NCI-H1299, 3pt, 48 hours, read-out: H1299 3pt
Method: (§1) Cell lines used are available from American Type Culture Collection (ATCC), for example, cell cultures containing A549 (ATCC# CCL-185), HeLa (ATCC# CCL-2), HCT116 ATTC# CCL-247), and H1299 (ATCC# CRL-5803) cells were maintained in T175 flasks following the ATCC recommended media and handling procedures. […] A 20,000 cells/ml solution was made for plating. Cells were plated in black Packard 96 well plates by placing 100 μl per well (2,000 cells per well). […] The definitions of the cell types used are as follows: A549 is lung carcinoma; HI 299 is non-small cell lung carcinoma; HI 155 is non-small cell lung carcinoma; AsPC-1 is pancreatic adenocarcinoma; Caov-3 is ovarian adenocarcinoma; COLO 205 is colorectal adenocarcinoma; DLD-1 colorectal adenocarcinoma; HCT116 is colorectal carcinoma; DU 145 is prostate carcinoma; ES-2 is ovarian clear cell carcinoma; H460 is large cell lung carcinoma; HELA is cervical adenocarcinoma; MIA PaCa-2 is pancreatice carcinoma; OVCAR-3 is ovarian adenocarcinoma; OVCAR8 is ovarian carcinoma; PC3 is prostate adenocarcinoma; SK-OV-3 is ovarian adenocarcinoma; SU86.86 is pancreatic carcinoma; TOV-21G is avarian clear cell carcinoma; U2OS is bone osteosarcoma; is ASPC-I is pancreatic adenocarcinoma; BXPC-3 is pabcreatic adenocarcinoma; HL60 is promyeloblast promyelocytic leukemia; K562 is bone marrow chronic myelogenous leukemia; L1210 is mouse lymphocytic leukemia; MOLT3 is T lymphoblast acute lymphoblastic leukemia; MOLT4 is T lymphoblast acute lymphoblastic leukemia; SW620 is colorectal adenocarcinoma; THP-1 is monocyte acute monocytic leukemia; U937 is histiocytic lymphoma; and UACC-257 is melanoma.
(§2) Compounds and additional media were added 24 hours after cell plating. […] All compound testing was done in duplicate using 6.3 fold dilutions starting with 10 mM. […] Taxol and at least one additional control were run on all plates. Three microliters of the compound master plate were added to deep well blocks containing 750 μl of RPMI media. One hundred microliters were transferred from the compound/media deep well blocks to the plated cells resulting in a 500 fold dilution of the compounds. Cells were grown at 37° C., 5% CO2 for 48 hours.
(§3) Cells to be analyzed by photography were fixed and stained. One hundred microliters of media were removed and 100 μl of 9.3% formamide was added to each well. Plates were left on the benchtop for 45 minutes. A staining solution containing 1.55 μl of 1 mg/ml DAPI added to 18.75 ml PBS was warmed for 15 minutes at 37° C. The cells were aspirated prior to washing with 100 μl of PBS. Seventy microliters of PBS were aspirated and 170 μl of the DAPI solution were added to each well of fixed cells. Plates were left at room temperature for one hour then aspirated and washed twice with 100 μl of PBS. The stained cells were left at 4° C. for a minimum of 16 hours before photographic analysis with Array Scan II (Cellomics). Analysis of the photographic images to determine numbers of live cells (proliferation), apoptotic cells and dead cells, were according to the methods described in U.S. Utility patent application Ser. No. 10/652,440, which incorporated herein in its entirety.

A549 cells = experiment: Cell proliferation PAD assay, A549; assay type: cell-based; details: Homo sapiens, 3pt, 48 hours, read-out: A549 3pt
Method: as §1, §2, §3

## O=S(=O)(Nc1cc(Cl)cc(Cl)c1)c1cccc2nonc12 [compound 52, N-(3,5-dichlorophenyl)-2,1,3-benzoxadiazole-4-sulfonamide]
H1299 cells
  IC50: ≥ 20 µM
A549 cells
  IC50: ≥ 20 µM

## O=S(=O)(NCC1CCCCC1)c1cccc2nonc12 [compound 53, N-(cyclohexylmethyl)-2,1,3-benzoxadiazole-4-sulfonamide]
H1299 cells
  IC50: ≥ 20 µM
A549 cells
  IC50: ≥ 20 µM

## Cc1ccc(NS(=O)(=O)c2cccc3nonc23)c(Cl)c1 [compound 54, N-(2-chloro-4-methylphenyl)-2,1,3-benzoxadiazole-4-sulfonamide]
H1299 cells
  IC50: ≥ 20 µM
A549 cells
  IC50: ≥ 20 µM

## O=S(=O)(NCCN1CCCC1)c1cccc2nonc12 [compound 55, N-(2-pyrrolidin-1-ylethyl)-2,1,3-benzoxadiazole-4-sulfonamide]
H1299 cells
  IC50: ≥ 20 µM
A549 cells
  IC50: ≥ 20 µM

## Cc1ccc(Cl)cc1NS(=O)(=O)c1cccc2nonc12 [compound 56, N-(5-chloro-2-methylphenyl)-2,1,3-benzoxadiazole-4-sulfonamide]
H1299 cells
  IC50: ≥ 20 µM
A549 cells
  IC50: ≥ 20 µM

## O=S(=O)(Nc1ccccc1I)c1cccc2nonc12 [compound 57, N-(2-iodophenyl)-2,1,3-benzoxadiazole-4-sulfonamide]
H1299 cells
  IC50: ≥ 20 µM
A549 cells
  IC50: ≥ 20 µM

## O=S(=O)(Nc1ccccn1)c1cccc2nonc12 [compound 58, N-pyridin-2-yl-2,1,3-benzoxadiazole-4-sulfonamide]
H1299 cells
  IC50: ≥ 20 µM
A549 cells
  IC50: ≥ 20 µM

## O=S(=O)(NCCF)c1cccc2nonc12 [compound 59, N-(2-fluoroethyl)-2,1,3-benzoxadiazole-4-sulfonamide]
H1299 cells
  IC50: ≥ 20 µM
A549 cells
  IC50: ≥ 20 µM

## O=S(=O)(Nc1cc(Cl)ccc1Cl)c1cccc2nonc12 [compound 60, N-(2,5-dichlorophenyl)-2,1,3-benzoxadiazole-4-sulfonamide]
H1299 cells
  IC50: ≥ 20 µM
A549 cells
  IC50: ≥ 20 µM

## COC(=O)c1ccc(C(=O)OC)c(NS(=O)(=O)c2cccc3nonc23)c1 [compound 63, dimethyl 2-[(2,1,3-benzoxadiazol-4-ylsulfonyl)amino]terephthalate]
H1299 cells
  IC50: ≥ 20 µM
A549 cells
  IC50: ≥ 20 µM

## O=[N+]([O-])c1ccc(NS(=O)(=O)c2cccc3nonc23)cc1 [compound 65, N-(4-nitrophenyl)-2,1,3-benzoxadiazole-4-sulfonamide]
H1299 cells
  IC50: ≥ 20 µM
A549 cells
  IC50: ≥ 20 µM

## O=S(=O)(Nc1ccc(N2CCOCC2)c(Cl)c1)c1cccc2nonc12 [compound 66, N-(3-chloro-4-morpholin-4-ylphenyl)-2,1,3-benzoxadiazole-4-sulfonamide]
H1299 cells
  IC50: ≥ 20 µM
A549 cells
  IC50: ≥ 20 µM

## O=S(=O)(Nc1ccccc1OC(F)(F)F)c1cccc2nonc12 [compound 67, N[2-(trifluoromethoxy)phenyl]2,1,3-benzoxadiazole-4-sulfonamide]
H1299 cells
  IC50: ≥ 20 µM
A549 cells
  IC50: ≥ 20 µM

## O=S(=O)(Nc1ccncc1)c1cccc2nonc12 [compound 68, N-pyridin-4-yl-2,1,3-benzoxadiazole-4-sulfonamide]
H1299 cells
  IC50: ≥ 20 µM
A549 cells
  IC50: ≥ 20 µM

## O=S(=O)(Nc1cccc2nsnc12)c1cc(F)c(F)c(F)c1 [compound 71, N-2,1,3-benzothiadiazol-4-yl-3,4,5-trifluorobenzenesulfonamide]
H1299 cells
  IC50: ≥ 20 µM
A549 cells
  IC50: 1 to 20 µM

## CCOC(=O)c1cccc(NS(=O)(=O)c2cccc3nonc23)c1 [compound 74, ethyl 3-[(2,1,3-benzoxadiazol-4-ylsulfonyl)amino]benzoate]
H1299 cells
  IC50: ≥ 20 µM
A549 cells
  IC50: ≥ 20 µM

## O=S(=O)(Nc1cccc2nsnc12)c1ccc(F)c(Cl)c1 [compound 76, N-2,1,3-benzothiadiazol-4-yl-3-chloro-4-fluorobenzenesulfonamide]
H1299 cells
  IC50: ≥ 20 µM
A549 cells
  IC50: ≥ 20 µM
